Consider ten compounds from ChEMBL document CHEMBL1201862, “PubChem BioAssay data set” (2004).

SMILES strings stand for the structures.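 In this assay, cells in 96-well plates receive the compound at five concentrations for 48 hours. Endpoints are linearly interpolated between the surrounding concentrations. GI50 = concentration required for 50% inhibition of growth.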 Active and inactive are the calls of the source. Cut-off read from the data, not from the text of the source: active = GI50 up to about 1.1 µM and inactive = higher. A value given as a limit tells only on which side of the number the result lay.

What all share (test): inhibition of tumour cell growth, NCI panel, 48 h
Experiment [1] deals with U-251.
The subject of experiment [2] is A549.
The subject of experiment [3] is OVCAR-5.
Experiment [4] relates to Hs-578T.
The test system of experiment [5] is LOX IMVI.
The subject of experiment [6] is MOLT-4.
Experiment [7] relates to RXF 393.
For experiment [8], the system named is OVCAR-8.
Experiment [9] has as its system SN12C.
The subject of experiment [10] is SK-MEL-5.
The subject of experiment [11] is NCI-H23.
Experiment [12] deals with A498.
The test system of experiment [13] is SF-268.
Experiment [14] relates to MDA-N.
Experiment [15] relates to NCI-H226.
The subject of experiment [16] is UACC-257.
The test system of experiment [17] is MCF7.
The test system of experiment [18] is IGROV-1.
For experiment [19], the system named is HL-60.
For experiment [20], the system named is CCRF-CEM.

`NS(=O)(=O)c1nnc(NSc2ccc([N+](=O)[O-])cc2)s1`: the GI50 in experiment [1] is > 100 µM (inactive); in [2], > 100 µM (inactive); in experiment [3], > 100 µM (inactive); in experiment [4], > 100 µM (inactive); in experiment [5], > 100 µM (inactive); in [6] it was 40.8 µM (inactive). For the same compound, the GI50 in experiment [7], in experiment [8], in experiment [9], in experiment [10], in experiment [11] and in experiment [12] was > 100 µM (inactive) in each case. The GI50 in experiment [13], in [14], in [15], in [16] and in experiment [17] was > 100 µM (inactive) in each case.

Take `CCN1CC2=C(N=c3s/c(=C\c4ccc(Cl)cc4)c(=O)n3C2c2ccc(Cl)cc2)/C(=C/c2ccc(Cl)cc2)C1` (configuration not stated): the GI50 in [18] is 67.3 µM (inactive); in experiment [1] it was 20.8 µM (inactive); in experiment [19], > 100 µM (inactive); in experiment [2], > 100 µM (inactive); in [3], > 100 µM (inactive); in experiment [4], 25.8 µM (inactive). Besides, the GI50 in experiment [5] was > 100 µM (inactive); in [6], 64.6 µM (inactive); in experiment [7], 2.47 µM (inactive); in experiment [8] it was > 100 µM (inactive); in experiment [10], > 100 µM (inactive); in [20], 73.3 µM (inactive). For the same compound, the GI50 in [11] was 63.1 µM (inactive); in experiment [12] it was 24.6 µM (inactive); in experiment [13], 24.9 µM (inactive); in [14] it was > 100 µM (inactive); in experiment [15] it was 37 µM (inactive); in experiment [16] it was > 100 µM (inactive). Moreover, in [17], the GI50 was > 100 µM (inactive).

`Cc1ccccc1C(O)(c1nccn1C)c1nccn1C`: the GI50 in experiment [18], in experiment [1], in experiment [19], in experiment [2], in experiment [3] and in experiment [4] was > 100 µM (inactive) each time. Besides, the GI50 in experiment [6], in experiment [7], in [8], in experiment [9], in experiment [10] and in experiment [20] was > 100 µM (inactive) throughout. The GI50 in [12], in experiment [13], in [14], in experiment [15], in experiment [16] and in experiment [17] was > 100 µM (inactive) throughout.

Take `Fc1ccc(C(OCCN2CC3CC2CN3CCCc2ccccc2)c2ccc(F)cc2)cc1` (configuration not stated): the GI50 in [18] is 10.1 µM (inactive); in experiment [1] it was 6.71 µM (inactive); in [19], 2.71 µM (inactive); in [2], 12 µM (inactive); in [3] it was 11.3 µM (inactive); in experiment [4], 10.1 µM (inactive). Besides, the GI50 in [5] is 5.87 µM (inactive); in experiment [6] it was 3.61 µM (inactive); in [8] it was 3.23 µM (inactive); in [9] it was 10.3 µM (inactive); in experiment [10], 1.84 µM (inactive); in experiment [20] it was 4.52 µM (inactive). Also, the GI50 in [11] is 11.4 µM (inactive); in experiment [12], 4.98 µM (inactive); in [13], 10.2 µM (inactive); in [14], 6.27 µM (inactive); in [15], 7.23 µM (inactive); in experiment [16], 3.69 µM (inactive). Also, the GI50 in experiment [17] is 6.08 µM (inactive).

As for `CC(C)N(C(=O)C12C3(C(=O)C(C)(C)C)C4C5(C#N)C3C1(C(=O)C(C)(C)C)C5C42C(=O)C(C)(C)C)C(C)C` (configuration not stated), the GI50 in experiment [18], in experiment [1], in [19], in experiment [2], in experiment [3] and in [4] was > 100 µM (inactive) each time. The GI50 in [5], in [6], in experiment [7], in [8], in experiment [9] and in experiment [10] was > 100 µM (inactive) in each case. In addition, the GI50 in experiment [20], in experiment [11], in experiment [12], in experiment [13], in [14] and in [16] was > 100 µM (inactive) each time. Besides, the GI50 in experiment [17] was > 100 µM (inactive).

Regarding `NNc1ncnc2cccc(Cl)c12`, the GI50 in experiment [18], in [1], in experiment [19], in experiment [2], in experiment [3] and in experiment [4] was > 100 µM (inactive) throughout. For the same compound, the GI50 in experiment [6], in experiment [7], in [8], in experiment [9], in [10] and in [20] was > 100 µM (inactive) throughout. Besides, the GI50 in [11], in experiment [12], in experiment [13], in experiment [14], in [15] and in experiment [16] was > 100 µM (inactive) throughout. Moreover, the GI50 in experiment [17] is > 100 µM (inactive).

For the compound `O=c1cc(N2CCCC2)[nH]c(=O)n1-c1ccc(Cl)cc1`, the GI50 in experiment [18], in experiment [1], in [19], in experiment [2], in [3] and in [4] was > 100 µM (inactive) in each case. Besides, the GI50 in experiment [5], in experiment [6], in experiment [7], in experiment [8], in [9] and in experiment [20] was > 100 µM (inactive) in each case. Moreover, the GI50 in [11], in experiment [12], in experiment [13], in experiment [14], in experiment [15] and in experiment [16] was > 100 µM (inactive) throughout. In addition, in experiment [17], the GI50 was > 100 µM (inactive).

For `CC[C@]12C=CCN3CCC4(c5cc(/N=N/c6ccccc6)c(OC)cc5N(C)[C@H]4[C@@](O)(C(=O)OC)[C@@H]1OC(C)=O)[C@@H]32` (some centres not stated), the GI50 in experiment [18] was 17.3 µM (inactive); in experiment [1], 15.9 µM (inactive); in experiment [19] it was 17.3 µM (inactive); in experiment [2], 17.5 µM (inactive); in [3], 17 µM (inactive); in experiment [4], 17.8 µM (inactive). Also, the GI50 in [5] is 17.3 µM (inactive); in [6], 13.6 µM (inactive); in experiment [7], 15.2 µM (inactive); in experiment [8], 19.5 µM (inactive); in experiment [9] it was 18.6 µM (inactive); in [10], 19.9 µM (inactive). Besides, the GI50 is 15.3 µM (inactive) in [11]; 16.6 µM (inactive) in experiment [12]; 18.2 µM (inactive) in experiment [13]; 18.4 µM (inactive) in experiment [14]; 24 µM (inactive) in experiment [15]; 16.6 µM (inactive) in [16]. Moreover, in experiment [17], the GI50 was 16.3 µM (inactive).

As for `COc1ccc(/N=N/C(=N/NC(=O)c2ccccc2)c2ccc(N(CCC#N)CCC#N)cc2C)cc1`, the GI50 is 42.8 µM (inactive) in experiment [18]; 60.5 µM (inactive) in experiment [1]; 32.6 µM (inactive) in experiment [19]; 38.2 µM (inactive) in [2]; > 100 µM (inactive) in experiment [3]; 23.4 µM (inactive) in [4]. In addition, the GI50 was 49.5 µM (inactive) in experiment [6]; 34.8 µM (inactive) in experiment [7]; 51.8 µM (inactive) in [8]; 56.1 µM (inactive) in [9]; 18.2 µM (inactive) in experiment [10]; 36.7 µM (inactive) in experiment [20]. Moreover, the GI50 in [11] was 25.5 µM (inactive); in experiment [12], 25.6 µM (inactive); in [13], 58.2 µM (inactive); in experiment [14] it was 4.7 µM (inactive); in experiment [15] it was 43.8 µM (inactive); in [16], 78.7 µM (inactive). For the same compound, the GI50 in experiment [17] is 18.5 µM (inactive).

In the case of `C=C1C2C[C@@H]3O[C@H]4C[C@H]5O[C@@]6(C[C@@H]7O[C@]8(C[C@H](C)[C@@H]9O[C@@H]%10CC(CO)O[C@@H]%10C[C@@H]9O8)C[C@H](C)[C@@H]7O6)C[C@H]5O[C@H]4[C@H](C)[C@H]3OC(=O)C[C@H]3CC[C@@H]4OC5[C@H]6O[C@]7(CC[C@H]8CC(=C)[C@H](CC[C@@H](C[C@H]1C)O2)O8)CC6O[C@@H]5[C@@H](O7)[C@H]4O3` (some centres not stated), the GI50 in [18], in [1], in experiment [2], in experiment [3], in [4] and in experiment [5] was < 0.0001 µM (active) in each case. Further, the GI50 in experiment [6], in [7], in [8], in experiment [9], in [10] and in experiment [20] was < 0.0001 µM (active) throughout. Also, the GI50 in experiment [11] was < 0.0001 µM (active); in experiment [12], 0.000502 µM (active); in experiment [13] it was < 0.0001 µM (active); in experiment [14] it was < 0.0001 µM (active); in [15] it was < 0.0001 µM (active); in [16], < 0.0001 µM (active). For the same compound, in experiment [17], the GI50 is < 0.0001 µM (active).
